# Laboratory results reported in paper PMC9585577, “Oxyresveratrol and Gnetol Glucuronide Metabolites: Chemical Production, Structural Identification, Metabolism by Human and Rat Liver Fractions, and In Vitro Anti-inflammatory Properties” (Journal of Agricultural and Food Chemistry, 2022).
# Like-named read-outs stand apart in the source and are kept apart here.
# Legend:
# human liver S9 fractions = assay: In vitro glucuronidation by human hepatic S9 fractions; assay type: in vitro ADME; settings: for Vmax: human S9 0.5 mg/mL
# Description: (§1) To study the production of glucuronide metabolites in vitro, human and rat S9 hepatic fractions were used. To ensure that the formation rates of metabolites were linear over the incubation time and at the concentration of protein, a series of preliminary experiments was performed to optimize the reactions.
# (§2) Glucuronidation was studied by incubation of human or rat liver S9 fractions (0.5 mg/mL) with ORV or GN at different concentrations (0–3000 μM) in Tris–HCl buffer (50 mM, pH 7.4) in the presence of UDPGA (1 mM), alamethicin (25 μg/mL), and MgCl2 (5 mM). All samples were prepared in Eppendorf tubes in a final volume of 100 μL. After 15 min at 37 °C, 100 μL of methanol (100%) was incorporated to stop the reaction and precipitate the proteins. Finally, samples were centrifuged for 30 min at 14000g and 4 °C, and the supernatants were analyzed by UPLC–DAD–MS. Analysis were carried out using 1290 Infinity UPLC (Agilent Technologies, Courtaboeuf, France). The UPLC system was coupled to an Esquire 3000 Plus ion trap mass spectrometer using an ESI source (Bruker-Daltonics, Billerica, MA, U.S.A.). A total of 2 μL was injected into an Agilent SB-C18 column (1.8 μm, 2.1 × 100 mm). Samples were eluted with solvent A (H2O/0.1% formic acid) and solvent B (acetonitrile/0.1% formic acid) with the following gradient program: 10% B (from 0 to 1.7 min), 10–20% B (from 1.7 to 3.4 min), 20–30% B (from 3.4 to 5.1 min), 30% B (from 5.1 to 7.8 min), 30–35% B (from 7.8 to 9.5 min), 35–60% B (from 9.5 to 11.9 min), 60–100% B (from 11.9 to 15.3 min), 100% B (from 15.3 to 17 min), and 100–10% B (from 17 to 17.3 min). The flow rate was set at 0.4 mL/min, and the UV detector was set at wavelengths of 280 and 320 nm. Total ion chromatograms were obtained using negative mode with a range of m/z 130–1400. The parameters were as follows: capillary voltage, +4 kV; nebulizer pressure, 40 psi; dry gas, 10 L/min; and dry temperature, 365 °C. Data analysis was performed with Bruker Data Analysis 3.2 (Bruker-Daltonics, Billerica, MA, U.S.A.). Metabolite concentrations were quantified with the corresponding standard curve of ORV and GN glucuronides previously obtained by hemisynthesis.
# (§3) The kinetic parameters, Km, Vmax, and Ki, were calculated using the GraphPad Prism software (version 6.01) (substrate inhibition as the kinetic model). The data obtained from MTT, NO, ROS, IL-1β, and TNF-α production were subjected to one-way analysis of variance (ANOVA). A comparison between LPS and the different tested concentrations of ORV, GN, and their glucuronide metabolites was performed using Dunnet’s test, and p < 0.05 was considered significant (GraphPad Prism software, version 6.01).
# (§4) An important objective of this work was to study the in vitro metabolization of t-ORV and t-GN in rat and human species using S9 hepatic fractions. To this end, both stilbene monomers were incubated (37 °C, 15 min) at different concentrations (0–3000 μM) with human and rat S9 fractions (0.5 mg/mL) in the presence of UDPGA as a co-substrate of phase II enzymes. Then, samples were injected into a HPLC–DAD–MS system to identify and quantify the in vitro generated metabolites.
# [1] = system: TNF-α production in LPS-stimulated RAW 264.7 cells; assay: TNF-α production (ELISA) in LPS-stimulated macrophages; assay type: cell-based, murine; settings: 24 h
# Description: (§5) RAW 264.7 cells were cultured in DMEM containing 10% FBS and maintained in a humidified incubator set at 37 °C with 5% CO2. For all following assays, cells were subcultured at a density of 40 000 cells per well in 96 well culture plates with 200 μL of the above-described culture medium. After 24 h, cells were incubated with ORV, GN, and their glucuronide metabolites (5–200 μM) in RPMI medium supplemented with glutamine (4 mM) in the presence or absence of LPS (0.1 μg/mL) (200 μL final volume per well). For MTT, NO, ROS, IL-1β, and TNF-α (n = 4), each experiment was performed in triplicate separately.
# At 24 h after seeding, RAW 264.7 cells were exposed to LPS (0.1 μg/mL) in the absence or presence of ORV, GN (10 and 50 μM), and their metabolites (50 and 200 μM). After 24 h of exposure, IL-1β and TNF-α concentrations were measured in culture media supernatants by ELISA sandwich assay following the instructions of the manufacturer.
# [2] = system: ROS production in LPS-stimulated RAW 264.7 cells; assay: Intracellular ROS measurement (DCFH2-DA) in LPS-stimulated macrophages; assay type: cell-based, murine
# Description: as §5
# Generation of intracellular ROS in cells was analyzed using the fluorometric probe DCFH2-DA. After 24 h of treatment with GN, ORV, and their glucuronide metabolites, cells were washed with phosphate-buffered saline (PBS) and then 150 μL of DCFH2-DA (10 μM) was added. After 30 min at 37 °C, the fluorescence intensity was quantified using a microplate reader (FLUOstar Optima, BMG Labtech) with a wavelength of excitation and emission of 485 and 520 nm, respectively. All experiments were performed in darkness. Results were expressed as ROS production (fluorescence intensity expressed as arbitrary units) compared to cells treated only with LPS (positive control).
# rat liver S9 fractions = assay: In vitro glucuronidation by rat hepatic S9 fractions; assay type: in vitro ADME; settings: for Vmax: rat S9 0.5 mg/mL
# Description: as §1, §2, §3, §4
# [3] = system: NO production in LPS-stimulated RAW 264.7 cells; assay: NO measurement (Griess) in LPS-stimulated macrophages; assay type: cell-based, murine; settings: for reduction of NO production: 50 μM, versus LPS alone
# Description: as §5
# After 24 h of treatment of RAW 264.7 cells with ORV, GN, and their glucuronide metabolites, 70 μL of supernatant was mixed with 70 μL of Griess solution. After 15 min in darkness, the absorbance was measured at 550 nm using a microplate reader (FLUOstar Optima, BMG Labtech). A calibration curve of NO2 (0–100 μM) was used for quantification. Data were expressed as NO production (μM) compared to cells treated only with LPS (positive control).
# RAW 264.7 cells [4] = settings: cited from earlier work
# HMC3 cells = system: HMC3 cells; design: method as in PMID 32842681; settings: HMC3 cells ref 8; cited from earlier work
# [5] = in vivo, 400 umol/kg; cited from earlier work
# [6] = cited from earlier work
# RAW 264.7 cells [7] = assay: MTT cell viability; assay type: cell-based, murine; settings: 24 h, 5–200 μM tested
# Description: as §5
# The MTT colorimetric assay was performed to assess the cell viability of cells after being treated with ORV, GN, and their glucuronide metabolites. After 24 h of treatment, RAW 264.7 cells were incubated with 0.5 mg/mL MTT during 3 h at 37 °C. The formazan crystals formed were dissolved with 100 μL of dimethyl sulfoxide (DMSO), and the plate was then incubated in the darkness for 30 min. Finally, the absorbance was measured at 595 nm using a microplate reader (FLUOstar Optima, BMG Labtech).
# macrophage cell line = settings: 100 μM, 18 h incubation ref 6; cited from earlier work
# macrophages = system: macrophages; design: method as in PMID 24257684; settings: macrophages ref 37; cited from earlier work
# [8] = formation of the glucuronide from ORV
# [9] = formation of the glucuronide from GN
# [10] = between 25 and 50 μM (summary statement)
# [11] = incubation of parent ORV or GN with human S9, UPLC–DAD–MS
compound,measurement,setting,value
"O=C(O)[C@H]1O[C@@H](Oc2cc(O)cc(/C=C/c3ccc(O)cc3O)c2)[C@H](O)[C@@H](O)[C@@H]1O [t-ORV-3G, trans-oxyresveratrol-3-O-glucuronide]",Vmax,human liver S9 fractions; [8],11.41 ± 2.32 nmol min^–1 mg^–1 of protein
same,reduction of TNF-α,[1]; 200 μM,70%
same,"reduction of ROS production, at the most","[2]; ORV metabolites, 50–200 μM tested, concentration not given, 24 h, LPS",more than 80%
same,Vmax,rat liver S9 fractions; [9],36 ± 3.57 nmol min^–1 mg^–1 of protein
same,Vmax,rat liver S9 fractions; [8],319.1 ± 69.77 nmol min^–1 mg^–1 of protein
same,reduction of NO production,"[3]; 24 h, LPS 0.1 μg/mL",31%
"O=C(O)[C@H]1O[C@@H](Oc2cc(O)ccc2/C=C\c2cc(O)cc(O)c2)[C@H](O)[C@@H](O)[C@@H]1O (relative stereo) [c-ORV-2′G, cis-oxyresveratrol-2′-O-glucuronide]",metabolite formed/detected in samples,human liver S9 fractions,very low
same,metabolite formed/detected in samples,rat liver S9 fractions,very low
"O=C(O)[C@H]1O[C@@H](Oc2cc(O)cc(/C=C\c3ccc(O)cc3O)c2)[C@H](O)[C@@H](O)[C@@H]1O (relative stereo) [c-ORV-3G, cis-oxyresveratrol-3-O-glucuronide]",Vmax/Km,human liver S9 fractions,0.159 ± 0.066 μL min^–1 mg^–1 of protein
same,Vmax,human liver S9 fractions; [8],13.01 ± 1.04 nmol min^–1 mg^–1 of protein
same,Vmax/Km,rat liver S9 fractions,0.073 ± 0.044 μL min^–1 mg^–1 of protein
same,Vmax,rat liver S9 fractions; [8],31.34 ± 5.6 nmol min^–1 mg^–1 of protein
"O=C(O)[C@H]1O[C@@H](Oc2cccc(O)c2/C=C/c2cc(O)cc(O)c2)[C@H](O)[C@@H](O)[C@@H]1O [t-GN-2′G, trans-gnetol-2′-O-glucuronide]",Vmax,human liver S9 fractions; [9],2.48 ± 0.31 nmol min^–1 mg^–1 of protein
same,Vmax,rat liver S9 fractions; [9],6.88 ± 0.86 nmol min^–1 mg^–1 of protein
"O=C(O)[C@H]1O[C@@H](Oc2ccc(/C=C/c3cc(O)cc(O)c3)c(O)c2)[C@H](O)[C@@H](O)[C@@H]1O [t-ORV-4′G, trans-oxyresveratrol-4′-O-glucuronide]",reduction of NO production,"[3]; 24 h, LPS 0.1 μg/mL",27.2%
"Oc1cc(O)cc(/C=C/c2ccc(O)cc2O)c1 [t-ORV, trans-2′,3,4′,5-tetrahydroxystilbene]",IC30 for cell cytotoxicity,RAW 264.7 cells [4],higher than 50 μM
same,concentration from which toxic,HMC3 cells,≥ 80 µM
same,total bioavailability,[5],9.1-15.2%
same,reduction of TNF-α,[1]; 50 μM,30%
same,reduction of ROS,"[2]; 50 μM, 24 h, LPS 0.1 μg/mL",more than 70%
same,decrease of ROS production,[2]; [10],more than 50%
same,"ability to metabolize ORV into glucuronides, rats versus humans (sum of Vmax/Km)","rat liver S9 fractions; rat, human, pH 7.4",> 2 fold
same,AUC0–t,"[6]; rat, in vivo, po",5133 μg h L^–1
same,concentration in plasma,"[6]; rats, oral administration of ORV 100 mg/kg ref 19",~10 µM
same,concentration from which toxic (MTT),RAW 264.7 cells [7],≥ 100 µM
same,cytotoxic effect,macrophage cell line,did not observe any cytotoxic effect
same,reduction of NO production,"[3]; 24 h, LPS 0.1 μg/mL",27.1%
same,concentration from which NO production significantly reduced,"[3]; 24 h, LPS 0.1 μg/mL",≥ 10 µM
same,decrease of NO production,[3]; [10],more than 50%
O=C(O)C1OC(Oc2ccc(C=Cc3cc(O)cc(O)c3)c(O)c2)C(O)C(O)C1O (stereo not shown) [ORV-4′G],metabolite formed/detected in samples,human liver S9 fractions; [11],neither the trans nor the cis form of ORV-4′G was detected
same,metabolite formed/detected in samples,"rat liver S9 fractions; incubation of parent ORV or GN with rat S9, UPLC–DAD–MS",neither the trans nor the cis form of ORV-4′G was detected
"O=C(O)[C@H]1O[C@@H](Oc2cc(O)cc(/C=C/c3c(O)cccc3O)c2)[C@H](O)[C@@H](O)[C@@H]1O [t-GN-3G, trans-gnetol-3-O-glucuronide]",metabolite formed/detected in samples,human liver S9 fractions; [11],very low quantities
"O=C(O)[C@H]1O[C@@H](Oc2cc(O)ccc2/C=C/c2cc(O)cc(O)c2)[C@H](O)[C@@H](O)[C@@H]1O [t-ORV-2′G, trans-oxyresveratrol-2′-O-glucuronide]",Vmax,human liver S9 fractions; [8],12.93 ± 1.47 nmol min^–1 mg^–1 of protein
same,Vmax,rat liver S9 fractions; [8],2.67 ± 0.32 nmol min^–1 mg^–1 of protein
same,reduction of NO production,"[3]; 24 h, LPS 0.1 μg/mL",29%
O=C(O)[C@H]1O[C@@H](Oc2cc(O)cc(/C=C/c3ccc(O)cc3)c2)[C@H](O)[C@@H](O)[C@@H]1O [resveratrol-3-O-glucuronide],cytotoxic effect,macrophages,neither resveratrol-3-O-glucuronide nor resveratrol-4′-O-glucuronide had any cytotoxic effect
O=C(O)[C@H]1O[C@@H](Oc2ccc(/C=C/c3cc(O)cc(O)c3)cc2)[C@H](O)[C@@H](O)[C@@H]1O [resveratrol-4′-O-glucuronide],cytotoxic effect,macrophages,neither resveratrol-3-O-glucuronide nor resveratrol-4′-O-glucuronide had any cytotoxic effect
